Laboratory results reported in patent US20240002470A1, “Method for separation and/or detection and/or in vitro quantification of infectious compounds in biological material” (priority 2020, published 2024).

What was measured:
[1] = tested on: ISAV virus (Infectious salmon anemia virus); test: Capture of ISAV virus on magnetic microbeads coated with pepβ2GPI, RT-PCR quantification; type: binding; conditions: for ISAV copies: virus captured on coated beads from culture supernatant
From the text: The virus used is the ISAV virus (Infectious salmon anemia virus), responsible for anemia in salmon, originating from a culture supernatant.
The microbeads, intended to fix the virus, which are used are magnetic microbeads sold by the company MERCK under the name “Estapor® super-paramagnetic microspheres” which have a diameter between […].
(§1) The pepβ2GPI were grafted onto the microbeads according to the supplier's recommendations. In summary, the microbeads are suspended in phosphate buffer at a pH of 6.0. The beads are then activated, for 15 minutes, in the presence of 1-ethyl-3-(3-Dimethylaminopropyl) carbodiimide and N-hydroxysuccinimide. After washing with HCl, 2 mM, the beads are suspended in a phosphate buffer at a pH of 7.5, containing the pepβ2GPI. The concentration of pepβ2GPI in this coupling buffer is 20 mg/L; the microbeads are incubated in the buffer with gentle and constant shaking at a temperature of 25° C. for 3 hours. The microbeads are then centrifuged at 1,500 rpm and the supernatant is removed; the centrifugation pellet is suspended in the same buffer as that used for the coupling of pepβ2GPI, which forms the suspension of microbeads coated with pepβ2GPI which we want to test.
(§2) One hundred microliters of viral culture supernatant to be studied are placed in an Eppendorf tube with 900 microliters of Tris buffer at a pH of 7.5 and 10 microliters of microbeads. The tubes are shaken horizontally to mix the microbeads well, and each tube is incubated at 37° C. or at room temperature (RT=22° C.) for 30 minutes. In each tube, the microbeads are then separated from the liquid phase by means of a magnet, placed externally against the wall of the tube, and the viral RNA is extracted. The beads are brought into contact with a viral lysis buffer, included in an RNA extraction kit: QIAamp RNA viral kit, sold by QIAGEN and the viral RNA is isolated according to the seller's recommendations.
The RNA is then transcribed into complementary DNA, in the presence of reverse transcriptase, according to the following protocol:
Finally, the complementary DNA (cDNA) is amplified by chain reaction using a polymerase and quantified according to the following protocol: […]

E. coli ATCC 8739 = test: Capture of E. coli ATCC 8739 on magnetic microbeads, culture and counting; type: binding, Escherichia coli; conditions: E. coli ATCC 8739 colonies from captured beads
Description: (§3) One ml of the culture of bacteria to be studied is placed in a hemolysis tube. 100 μl of buffer are added, the trade name of which is TTGB, then 20 μl of microbeads. The tube is stirred horizontally, to mix the microbeads well, and incubated at 37° C. or at room temperature (TA=22° C.) for half an hour. At the end of the incubation, the microbeads are separated from the liquid phase by means of a magnet, placed externally against the wall of the tube. The microbeads are then washed twice with LB medium and then resuspended in 1 ml of BTS culture medium (Tripticase-Soy broth) having the following formulation: […]
(§4) This culture medium is brought to a boil and then autoclaved, to make it sterile, before use. 20 μl of the microbead suspension are taken and spread in a Petri dish containing TS agar (Trypticase-Soya agar) having the following formulation: […]
(§5) The Petri dishes are incubated at +37° C. for 24 hours. The bacteria that have grown on the agar are then counted.
The used bacteria were obtained from a collection strain of Escherichia coli (E. coli), ATCC 8739. The same experiment as that described in the previous example was carried out.

[2] = tested on: bacteria present in treated wastewater; test: Capture of bacteria present in treated wastewater on magnetic microbeads, culture and counting; type: binding
Description: as §3, §4, §5
The beads, on which β2GPI and peptides derived therefrom were grafted, were used to capture the bacteria present in treated wastewater. This water was recovered at the outlet of the purifier from the Grau-du-Roi treatment plant. The same experiment as that described in the previous example was carried out.

Yeast = test: Capture from blood culture on magnetic microbeads, culture on TS agar: yeast; type: binding
Description: (§6) The beads, on which β2GPI and peptides derived therefrom were grafted, were used for the capture of bacteria present in human blood and highlighted by blood culture.
(§7) These blood cultures are carried out by placing a venous blood sample […] in aerobic vials of BacT/ALERT®3D type. These flasks are then incubated in an automated system at 35° C. for at least 5 days. The bottles are equipped with a colorimetric detection system with a sensor located at the base of each bottle. Carbon dioxide produced by growing bacteria changes the color of the sensor; this change in color is detected by an automated system and indicates the presence of bacterial growth: these blood cultures are said to be positive. In the BacT/ALERT®3D vials there are particles of activated carbon, which inhibit antibiotics potentially present in the blood of patients, thereby improving the detection of microorganisms. To confirm the presence of bacteria in blood cultures which have been found positive, the hospital performs a culture on blood agar. […]
(§8) To test the interaction of microbeads coated with β2GPI and the peptides derived from them, with bacteria present in the blood, 1 ml of blood culture is taken from each sample and placed in a 15 ml tube. […] The bacteria that have grown on the agar were then counted.

E. faecium = test: Capture from blood culture on magnetic microbeads, culture on TS agar: E. faecium; type: binding
Description: as §6, §7, §8

[3] = tested on: HSV virus (Herpes Simplex virus); test: Capture of HSV virus on magnetic microbeads coated with pepβ2GPI; type: binding
Description: as §1, §2
The viruses tested are the HSV virus (Herpes Simplex virus) and the BVDV virus (Bovine viral Diarrhea Virus).
The same protocol as that described in example 1 was carried out.

E. coli ATCC 11105 = test: Capture on magnetic microbeads coated with pepβ2GPI: C3 E. coli ATCC 11105; type: binding
Description: (§9) To test the interaction of microbeads coated with β2GPI and the peptides derived from them, with bacteria present in the blood, 1 ml of blood culture is taken from each sample and placed in a 15 ml tube. 20 μl of microbeads are added and each tube is incubated at 37° C. with horizontal shaking. The tubes are then placed in a magnetic field which retains the microbeads on the wall and the supernatant is removed. The microbeads are then washed twice with sterile PBS, of the same composition as previously indicated; the microbeads are then resuspended in 150 μl of BTS culture medium. Two methods for detecting bacteria captured by microbeads were used: culture on TS agar and PCR For the detection of the bacterial capture by culture, 50 μl of the suspension of microbeads thus obtained are taken and they are spread out in a Petri dish containing TS agar. Petri dishes are incubated in an oven at 37° C. for 24 hours. The bacteria that have grown on the agar were then counted.
(§10) The tested bacteria are: C3 E. coli ATCC 11105, C5 S. aureus ATCC 6538, H61 E. coli B6054, C1: E. coli ATCC 8739, H46: C. albicans 1 and H: 60 SCN
(§11) The same protocol and primers as those described in example 9 were carried out.

E. coli B6054 = test: Capture on magnetic microbeads coated with pepβ2GPI: H61 E. coli B6054; type: binding
Description: as §9, §10, §11

| Molecule | % compared to β2GPI ([1]; ISAV copies captured relative to β2GPI beads) | ISAV copies [1] | % compared to β2GPI (E. coli ATCC 8739) [%] | % compared to β2GPI [2] [%] | % compared to β2GPI (Yeast) [%] | % compared to β2GPI (E. faecium) [%] | Capture of HSV virus [3] [%] | Capture of C3 E. coli ATCC 11105 (E. coli ATCC 11105) [%] | Capture of H61 E. coli B6054 (E. coli B6054) [%] |
| --- | --- | --- | --- | --- | --- | --- | --- | --- | --- |
| H-((SSLAFWK)2-K)2-K—NH2 [Peptide P11] | (140%) | 78 350 copies | 99 | 105 | 89 | 88 | 123 | 43 | 90 |
| β2GPI: plasma glycoprotein called β2-glycoprotein I, grafted on beads as the reference (protein, UniProt P02749 20-345, looked up, grafted on beads) Beta-2-glycoprotein 1: GRTCPKPDDLPFSTVVPLKTFYEPGEEITYSCKPGYVSRGGMRKFICPLTGLWPINTLKCTPRVCPFAGILENGAVRYTTFEYPNTISFSCNTGFYLNGADSAKCTEEGKWSPELPVCAPIICPPPSIPTFATLRVYKPSAGNNSLYRDTAVFECLPQHAMFGNDTITCTTHGNWTKLPECREVKCPFPSRPDNGFVNYPAKPTLYYKDKATFGCHDGYSLDGPEEIECTKLGNWSAMPSCKASCKVPVKKATVVYQGERVKIQEKFKNGMLHGDKVSFFCKNKEKKCSYTEDAQCIDGTIEVPKCFKEHSSLAFWKTDASDVKPC |  | 55 800 copies | 100 | 100 | 100 | 100 |  |  |  |
